For 18 compounds, IC50 results are on record in patent US20260132132A1, “3A,4,5,6-TETRAHYDRO-1 H-PYRAZOLO[3,4-C]PYRIDIN-7(7AH)-ONE DERIVATIVES AS FACTOR XIIA INHIBITORS” (KALVISTA PHARMACEUTICALS LIMITED, priority 2022, published 2026).

Molecules are shown by their SMILES.

The test addresses T1, Human Factor XIIa (hFXIIa) (Homo sapiens, UniProt P00748).
T1 construct: purchased Enzyme Research Laboratories
T1 sequence (P00748 373-615 limits assumed): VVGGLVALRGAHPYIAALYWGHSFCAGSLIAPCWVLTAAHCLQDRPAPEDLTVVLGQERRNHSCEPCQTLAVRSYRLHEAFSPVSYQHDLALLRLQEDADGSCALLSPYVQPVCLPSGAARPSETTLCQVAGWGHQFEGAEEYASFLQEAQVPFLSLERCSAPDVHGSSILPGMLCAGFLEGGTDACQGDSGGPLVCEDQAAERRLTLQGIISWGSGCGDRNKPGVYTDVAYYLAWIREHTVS
T1 sequence (P00748 20-372 partner limits assumed): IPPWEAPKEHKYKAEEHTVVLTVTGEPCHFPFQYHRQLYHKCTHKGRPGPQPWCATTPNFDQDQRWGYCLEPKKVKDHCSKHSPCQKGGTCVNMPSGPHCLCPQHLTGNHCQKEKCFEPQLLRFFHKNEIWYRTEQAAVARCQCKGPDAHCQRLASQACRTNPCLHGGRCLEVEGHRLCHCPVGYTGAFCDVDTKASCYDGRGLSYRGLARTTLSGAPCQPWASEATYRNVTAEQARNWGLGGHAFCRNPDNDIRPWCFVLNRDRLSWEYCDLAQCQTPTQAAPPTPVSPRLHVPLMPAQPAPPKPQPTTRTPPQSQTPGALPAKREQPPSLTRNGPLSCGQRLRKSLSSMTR
Kind of test: Determination of Human Factor XIIa (hFXIIa) inhibition, fluorogenic substrate IC50 assay. Particulars: fluorogenic substrate H-DPro-Phe-Arg-AFC at Km, 25° C., read-out: Human FXIIa IC50. It is filed as biochemical. The method, then:
Determination of Human Factor XIIa (hFXIIa) inhibition
The Km for the cleavage of the substrate by hFXIIa was determined by standard transformation of the Michaelis-Menten equation, with subsequent inhibition assays performed at substrate Km concentration.

As for `C[C@H](NC(=O)c1nn(-c2cccc(Cl)c2)c2c1CCN(c1ccc3c(c1)CN(CCO)CC3)C2=O)c1cccnc1` [Example 1131, (S)-1-(3-chlorophenyl)-6-(2-(2-hydroxyethyl)-1,2,3,4-tetrahydroisoquinolin-7-yl)-7-oxo-N-(1-(pyridin-3-yl)ethyl)-4,5,6,7-tetrahydro-1H-pyrazolo[3,4-c]pyridine-3-carboxamide], the IC50 was in the range of 0.1 to 0.3 µM. The result for `CC1CCCN1Cc1cccc(N2CCc3c(C(=O)NCc4ccccc4)nn(-c4cccc(Cl)c4)c3C2=O)c1` (stereo not drawn) [Example 1039, N-benzyl-1-(3-chlorophenyl)-6-(3-((2-methylpyrrolidin-1-yl)methyl)phenyl)-7-oxo-4,5,6,7-tetrahydro-1H-pyrazolo[3,4-c]pyridine-3-carboxamide] reads 0.3 to 1 µM; that for `CN1Cc2ccc(N3CCc4c(C(=O)NCC5CC5)nn(-c5cccc(Cl)c5)c4C3=O)cc2C1=O` [Example 1192, 1-(3-chlorophenyl)-N-(cyclopropylmethyl)-6-(2-methyl-3-oxoisoindolin-5-yl)-7-oxo-4,5,6,7-tetrahydro-1H-pyrazolo[3,4-c]pyridine-3-carboxamide], 3 to 10 µM; that for `CN(C)C(=O)c1cc(N2CCc3c(C(=O)NCC4CC4)nn(-c4cccc(Cl)c4)c3C2=O)ccc1F` [Example 1281, 1-(3-chlorophenyl)-N-(cyclopropylmethyl)-6-(3-(dimethylcarbamoyl)-4-fluorophenyl)-7-oxo-4,5,6,7-tetrahydro-1H-pyrazolo[3,4-c]pyridine-3-carboxamide], 3 to 10 µM. The result for `O=C(NCC1CC1)c1nn(-c2cccc(Cl)c2)c2c1CCN(c1ccc3c(c1)CN(C1CCC1)CC3)C2=O` [Example 1103, 1-(3-chlorophenyl)-6-(2-cyclobutyl-1,2,3,4-tetrahydroisoquinolin-7-yl)-N-(cyclopropylmethyl)-7-oxo-4,5,6,7-tetrahydro-1H-pyrazolo[3,4-c]pyridine-3-carboxamide] reads 0.1 to 0.3 µM; that for `O=C(N[C@@H]1CCOC1)c1nn(-c2cccc(Cl)c2)c2c1CCN(c1ccc3c(c1)CN(CCO)CC3)C2=O` [Example 1108, (R)-1-(3-chlorophenyl)-6-(2-(2-hydroxyethyl)-1,2,3,4-tetrahydroisoquinolin-7-yl)-7-oxo-N-(tetrahydrofuran-3-yl)-4,5,6,7-tetrahydro-1H-pyrazolo[3,4-c]pyridine-3-carboxamide], 0.1 to 0.3 µM; that for `CN1CCc2ccc(N3CCc4c(C(=O)NC[C@@H]5COCCO5)nn(-c5cccc(Cl)c5)c4C3=O)cc2C1=O` [Example 1249, (R)-N-((1,4-dioxan-2-yl)methyl)-1-(3-chlorophenyl)-6-(2-methyl-1-oxo-1,2,3,4-tetrahydroisoquinolin-7-yl)-7-oxo-4,5,6,7-tetrahydro-1H-pyrazolo[3,4-c]pyridine-3-carboxamide], 0.3 to 1 µM.

In the case of `Cc1cccc(-n2nc(C(=O)NCC3CC3)c3c2C(=O)N(c2ccc4c(c2)C(=O)N(C)CC4)CC3)c1` [Example 2011, N-(cyclopropylmethyl)-6-(2-methyl-1-oxo-1,2,3,4-tetrahydroisoquinolin-7-yl)-7-oxo-1-(m-tolyl)-4,5,6,7-tetrahydro-1H-pyrazolo[3,4-c]pyridine-3-carboxamide], the half-inhibitory concentration (IC50) lay in the range of 0.3 to 1 µM. The result for `Cc1cc(CNC(=O)c2nn(-c3cccc(Cl)c3)c3c2CCN(c2ccc4c(c2)CN(CCO)CC4)C3=O)nn1C` [Example 1166, 1-(3-chlorophenyl)-N-((1,5-dimethyl-1H-pyrazol-3-yl)methyl)-6-(2-(2-hydroxyethyl)-1,2,3,4-tetrahydroisoquinolin-7-yl)-7-oxo-4,5,6,7-tetrahydro-1H-pyrazolo[3,4-c]pyridine-3-carboxamide] reads 0.01 to 0.1 µM. Consider `COC(=O)CN1CCc2ccc(N3CCc4c(C(=O)NCC5CC5)nn(-c5cccc(Cl)c5)c4C3=O)cc2C1` [Example 1094, methyl 2-(7-(1-(3-chlorophenyl)-3-((cyclopropylmethyl)carbamoyl)-7-oxo-1,4,5,7-tetrahydro-6H-pyrazolo[3,4-c]pyridin-6-yl)-3,4-dihydroisoquinolin-2(1H)-yl)acetate], for which the IC50 was in the range of 1 to 3 µM. The result for `CN1CCc2ccc(N3CCc4c(C(=O)NCC5CCO5)nn(-c5cccc(Cl)c5)c4C3=O)cc2C1` (stereo not drawn) [Example 1045, 1-(3-chlorophenyl)-6-(2-methyl-1,2,3,4-tetrahydroisoquinolin-7-yl)-N-(oxetan-2-ylmethyl)-7-oxo-4,5,6,7-tetrahydro-1H-pyrazolo[3,4-c]pyridine-3-carboxamide] reads 0.3 to 1 µM. The result for `CC(C)n1ccc(CNC(=O)c2nn(-c3cccc(Cl)c3)c3c2CCN(c2ccc4c(c2)C(=O)N(C)CC4)C3=O)n1` [Example 1296, 1-(3-chlorophenyl)-N-((1-isopropyl-1H-pyrazol-3-yl)methyl)-6-(2-methyl-1-oxo-1,2,3,4-tetrahydroisoquinolin-7-yl)-7-oxo-4,5,6,7-tetrahydro-1H-pyrazolo[3,4-c]pyridine-3-carboxamide] reads 0.1 to 0.3 µM.

As to `Cc1cc(N2CCc3c(C(=O)NCC4CC4)nn(-c4cccc(Cl)c4)c3C2=O)cc2c1CCN(C)C2` [Example 1048, 1-(3-Chlorophenyl)-N-(cyclopropylmethyl)-6-(2,5-dimethyl-1,2,3,4-tetrahydroisoquinolin-7-yl)-7-oxo-4,5,6,7-tetrahydro-1H-pyrazolo[3,4-c]pyridine-3-carboxamide], the IC50 fell in the range of 0.3 to 1 µM. The result for `O=C(NCC1CC1)c1nn(-c2cccc(Cl)c2)c2c1CCN(c1cccc(C(=O)N3CCCC3)c1)C2=O` [Example 1263, 1-(3-chlorophenyl)-N-(cyclopropylmethyl)-7-oxo-6-(3-(pyrrolidine-1-carbonyl)phenyl)-4,5,6,7-tetrahydro-1H-pyrazolo[3,4-c]pyridine-3-carboxamide] reads 10 to 40 µM; that for `Cc1ccncc1CNC(=O)n1nc(-c2cccc(Cl)c2)c2c1CCN(c1ccc3c(c1)CN(CCO)CC3)C2=O` [Example 4003, 3-(3-chlorophenyl)-5-(2-(2-hydroxyethyl)-1,2,3,4-tetrahydroisoquinolin-7-yl)-N-((4-methylpyridin-3-yl)methyl)-4-oxo-4,5,6,7-tetrahydro-1H-pyrazolo[4,3-c]pyridine-1-carboxamide], 0.1 to 0.3 µM. The result for `COCc1nn(-c2cccc(Cl)c2)c2c1CCN(c1ccc3c(c1)CN(C)CC3)C2=O` [Example 1066, 1-(3-Chlorophenyl)-3-(methoxymethyl)-6-(2-methyl-1,2,3,4-tetrahydroisoquinolin-7-yl)-1,4,5,6-tetrahydro-7H-pyrazolo[3,4-c]pyridin-7-one] reads 1 to 3 µM; that for `Cc1cc(CNC(=O)c2nn(-c3cccc(Cl)c3)c3c2CCN(c2ccc4c(c2)C(=O)N(CCO)CC4)C3=O)n[nH]1` [Example 1255, 1-(3-chlorophenyl)-6-(2-(2-hydroxyethyl)-1-oxo-1,2,3,4-tetrahydroisoquinolin-7-yl)-N-((5-methyl-1H-pyrazol-3-yl)methyl)-7-oxo-4,5,6,7-tetrahydro-1H-pyrazolo[3,4-c]pyridine-3-carboxamide], 0.1 to 0.3 µM; that for `CN1CCc2ccc(N3CCc4c(C(=O)NCC5CC5)nn(-c5cc(Cl)cc(C(N)=O)c5)c4C3=O)cc2C1=O` [Example 2014, 1-(3-carbamoyl-5-chlorophenyl)-N-(cyclopropylmethyl)-6-(2-methyl-1-oxo-1,2,3,4-tetrahydroisoquinolin-7-yl)-7-oxo-4,5,6,7-tetrahydro-1H-pyrazolo[3,4-c]pyridine-3-carboxamide], 0.3 to 1 µM.

Broadly, the IC50 is the midpoint of a concentration-inhibition curve.
